Consider 31 compounds from patent US20240409557A1, “5,6-FUSED AND 6,6-FUSED BICYCLIC ALCOHOLS AND ETHERS AND COMPOSITIONS FOR USE AS 15-PROSTAGLANDIN DEHYDROGENASE MODULATORS” (AMGEN INC., priority 2023, published 2024).

For experiment [1], the target named is T1, human recombinant 15-PGDH (Homo sapiens, UniProt P15428).
T1 sequence (P15428 1-266): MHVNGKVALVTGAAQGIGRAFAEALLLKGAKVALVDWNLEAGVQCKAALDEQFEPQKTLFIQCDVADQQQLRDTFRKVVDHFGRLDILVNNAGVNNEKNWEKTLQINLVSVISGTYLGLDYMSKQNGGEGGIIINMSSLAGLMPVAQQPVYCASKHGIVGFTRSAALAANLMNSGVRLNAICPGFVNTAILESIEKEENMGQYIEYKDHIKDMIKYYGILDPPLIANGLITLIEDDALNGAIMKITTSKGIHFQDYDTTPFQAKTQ
As to the kind of experiment: Recombinant 15-PGDH enzymatic inhibition assay (PGDH-Lumi, NADH signal). It is filed as biochemical. To be noted: recombinant 15-PGDH; 15 min pre-incubation, 60 min reaction with PGE2 and NAD+, NADH signal. An outline of the steps: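 Buffer 50 mM Tris pH 7.5 with 0.01% Tween-20 and […]; compound, 22 two-fold dilutions, pre-incubated with enzyme 15 min before substrate.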

In experiment [2] the target is T2, 15-PGDH in A549 cells (Homo sapiens, UniProt P15428).
T2 construct: endogenous in cells; host or cells: A549
T2 sequence (P15428 1-266): T1 sequence (P15428 1-266)
The experiment in a line: A549 cellular 15-PGDH assay (PGE2 accumulation, HTRF). The class given is cell-based. To be noted: interleukin-stimulated, inhibitor 24 hrs, PGE2 by competitive HTRF, read-out: A549 Cell Assay IC50. An outline of the steps: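 Supernatant PGE2 was quantified by competitive HTRF, in which sample PGE2 blocks FRET between a europium cryptate-labelled antibody and labelled PGE2. It came from A549 epithelial cells induced with IL-13. IC50s were calculated from the inversely proportional signal.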
On the technique in general: TR-FRET usually uses a lanthanide donor and a delayed reading to cut background.

One may read the IC50 as the concentration at which inhibition is half-maximal. Take `Cn1cc2cc(-c3ccc4nc([C@]5(O)C[C@](C)(C#N)C5)sc4n3)cnc2n1` (single isomer, unassigned) [Compound C91T, trans-3-hydroxy-1-methyl-3-(5-(2-methyl-2H-pyrazolo[3,4-b]pyridin-5-yl)[1,3]thiazolo[5,4-b]pyridin-2-yl)cyclobutanecarbonitrile]: the IC50 in experiment [1] was 2.14 nM; in experiment [2] it was 5.85 nM.
Take `Cn1cc2cc(-c3ccc4nc(C5(O)CC(C)(C)C5)sc4n3)cnc2n1` [Compound C68, 3,3-dimethyl-1-(5-(2-methyl-2H-pyrazolo[3,4-b]pyridin-5-yl)[1,3]thiazolo[5,4-b]pyridin-2-yl)cyclobutanol]: the results for the half-inhibitory concentration (IC50) in experiment [1] and in experiment [2] were 0.58 nM and 0.361 nM, respectively.
For `Cn1cc2cc(-c3ccc4cc([C@]5(O)C[C@@H](F)C5)sc4n3)cnc2n1` [Compound C40C, cis-3-fluoro-1-(6-(2-methyl-2H-pyrazolo[3,4-b]pyridin-5-yl)thieno[2,3-b]pyridin-2-yl)cyclobutanol], the IC50 in experiment [1] amounted to 0.742 nM; in experiment [2], 1.22 nM.
Taken in the same sequence, the figures for `Cn1cc2cc(-c3ccc4nc([C@]5(O)C[C@]6(CC6(F)F)C5)sc4n3)cnc2n1` (single isomer, unassigned) [Compound C115C, cis-1,1-difluoro-5-(5-(2-methyl-2H-pyrazolo[3,4-b]pyridin-5-yl)[1,3]thiazolo[5,4-b]pyridin-2-yl)spiro[2.3]hexan-5-ol] were 0.393 nM and 0.978 nM.
With `CO[C@@H]1CC[C@]1(O)c1cc2ccc(-c3cnc4nn(C)cc4c3)nc2s1` (single isomer, unassigned) [Compound C70RR], the values for the 50% inhibitory concentration (IC50) in experiment [1] and in experiment [2] were 403 nM and 117 nM, respectively.
Consider `CO[C@@H]1CC[C@@]1(O)c1cc2ccc(-c3cnc4nn(C)cc4c3)nc2s1` (single isomer, unassigned) [Compound C70SR], for which the IC50 is 2260 nM in experiment [1] and 172 nM in experiment [2].
Consider `O[C@]1(c2cc3cnc(-c4ccnnc4)nc3s2)C[C@H](C(F)(F)F)C1` [Compound C126C, cis-1-(2-(4-pyridazinyl)thieno[2,3-d]pyrimidin-6-yl)-3-(trifluoromethyl)cyclobutanol], for which the IC50 in experiment [1] was found to be 11.6 nM; in experiment [2], 29 nM.
For the compound `CCn1cc2cc(-c3ccc4cc(C5(O)CC(F)(F)C5)sc4n3)cnc2n1` [Compound C32, 1-(6-(2-ethyl-2H-pyrazolo[3,4-b]pyridin-5-yl)thieno[2,3-b]pyridin-2-yl)-3,3-difluorocyclobutanol], the half-inhibitory concentration (IC50) in experiment [1] came out at 0.369 nM; in experiment [2], 0.255 nM.
Turning to `CCn1cc2cc(-c3ccc4cc([C@H](O)C5CC(F)(F)C5)sc4n3)cnc2n1` (single isomer, unassigned) [Compound B53R], the IC50 worked out at 0.222 nM in experiment [1] and 0.354 nM in experiment [2].
Taken in the same sequence, the figures for `Cc1c(C2(O)CC(F)(F)C2)sc2nc(-c3cnc4nn(C)cc4c3)ccc12` [Compound C77, 3,3-difluoro-1-(3-methyl-6-(2-methyl-2H-pyrazolo[3,4-b]pyridin-5-yl)thieno[2,3-b]pyridin-2-yl)cyclobutanol] were 7.69 nM and 9.15 nM.
For the compound `Cn1cc2cc(-c3ccc4cc([C@@H](O)[C@H]5CC5(F)F)sc4n3)cnc2n1` (single isomer, unassigned) [Compound B85SR], the IC50 in experiment [1] was 1.22 nM; in experiment [2] it was 1.5 nM.
Turning to `Cn1cc2cc(-c3ccc4cc(C(O)C5CCCC5)sc4c3)cnc2n1` (centres unmarked) [Compound B58, cyclopentyl(6-(2-methyl-2H-pyrazolo[3,4-b]pyridin-5-yl)-1-benzothiophen-2-yl)methanol], the IC50 turned out to be 0.488 nM in experiment [1] and 2.5 nM in experiment [2].
Consider `Cn1cc2cc(-c3ccc4cc(C5(O)CC(F)(F)C5)sc4c3)cnc2n1` [Compound C48, 3,3-difluoro-1-(6-(2-methyl-2H-pyrazolo[3,4-b]pyridin-5-yl)-1-benzothiophen-2-yl)cyclobutanol], for which the concentration for half-maximal inhibition (IC50) came to 27.7 nM in experiment [1] and 7.36 nM in experiment [2].
Consider `Cn1cc2cc(-c3ccc4cc([C@H](O)CCC(F)(F)F)sc4c3)cnc2n1` (single isomer, unassigned) [Compound B60R], for which the half-inhibitory concentration (IC50) in experiment [1] was 1.17 nM; in experiment [2], 3.38 nM.
On to `Cn1cc2cc(-c3ccc4cc([C@H](O)C(F)(F)F)sc4n3)cnc2n1` (single isomer, unassigned) [Compound B23R], for which the figures for the half-maximal inhibitory concentration (IC50) in experiment [1] and in experiment [2] were 0.422 nM and 0.389 nM, respectively.
Consider `Cn1cc2cc(-c3ncc4cc(C5(O)CC6(CC6)C5)sc4n3)cnc2n1` [Compound C107, 5-(2-(2-methyl-2H-pyrazolo[3,4-b]pyridin-5-yl)thieno[2,3-d]pyrimidin-6-yl)spiro[2.3]hexan-5-ol], for which the IC50 in experiment [1] is 0.49 nM; in experiment [2], 0.989 nM.
Regarding `Cn1cc2cc(-c3ccc4cc([C@H](O)C5CCC(F)(F)CC5)sc4n3)cnc2n1` (single isomer, unassigned) [Compound B31R], the IC50 in experiment [1] was 0.203 nM; in experiment [2], 0.53 nM.
Taken in the same sequence, the figures for `Cn1nnc2cc(-c3ccc4nc([C@]5(O)C[C@@H](C(F)F)C5)sc4n3)cnc21` [Compound C82C, cis-3-(difluoromethyl)-1-(5-(3-methyl-3H-[1,2,3]triazolo[4,5-b]pyridin-6-yl)[1,3]thiazolo[5,4-b]pyridin-2-yl)cyclobutanol] were 9.49 nM and 34.2 nM.
Taken in the same sequence, the figures for `O[C@@H](c1cc2ccc(-c3cncnc3)nc2s1)C1CC(F)(F)C1` (single isomer, unassigned) [Compound B57R] were 0.32 nM and 0.657 nM.
As for `CC(O)c1cc2ccc(-c3cnc4nn(C)cc4c3)nc2s1` (centres unmarked) [Compound B25, 1-(6-(2-methyl-2H-pyrazolo[3,4-b]pyridin-5-yl)thieno[2,3-b]pyridin-2-yl)ethanol], the IC50 in experiment [1] stood at 5.85 nM; in experiment [2], 16.4 nM.
Taken in the same sequence, the figures for `Cn1cc2cc(-c3ccc4cc(C(O)CCC(F)(F)F)sc4c3)cnc2n1` (centres unmarked) [Compound B60, 4,4,4-trifluoro-1-(6-(2-methyl-2H-pyrazolo[3,4-b]pyridin-5-yl)-1-benzothiophen-2-y1)-1-butanol] were 3.03 nM and 9.36 nM.
Taken in the same sequence, the figures for `CO[C@H]1C[C@@H]([C@H](O)c2cc3ccc(-c4cnc5nn(C)cc5c4)nc3s2)C1` (single isomer, unassigned) [Compound B88SC] were 10.1 nM and 0.522 nM.
Consider `Cn1cc2cc(-c3cnc4cc([C@@H](O)C5CC(F)(F)C5)sc4n3)cnc2n1` [Compound B92S, (S)-(3,3-difluorocyclobutyl)(3-(2-methyl-2H-pyrazolo[3,4-b]pyridin-5-yl)thieno[2,3-b]pyrazin-6-yl)methanol], for which the IC50 in experiment [1] turned out to be 5.14 nM; in experiment [2], 3.44 nM.
Taken in the same sequence, the figures for `CO[C@]1(C)C[C@](O)(c2cc3ccc(-c4cnc5c(c4)nnn5C)nc3s2)C1` (single isomer, unassigned) [Compound C102T, trans-3-methoxy-3-methyl-1-(6-(3-methyl-3H-[1,2,3]triazolo[4,5-b]pyridin-6-yl)thieno[2,3-b]pyridin-2-yl)cyclobutanol] were 1.65 nM and 5.77 nM.
On to `Cn1cc2cc(-c3ccc4cc([C@H](O)[C@@H]5CC5(F)F)sc4n3)cnc2n1` (single isomer, unassigned) [Compound B85RS], for which the half-maximal inhibitory concentration (IC50) in experiment [1] was found to be 0.379 nM; in experiment [2], 0.517 nM.
Taken in the same sequence, the figures for `Cn1cc(-c2ncc3cc([C@]4(O)C[C@@H](C(F)(F)F)C4)sc3n2)cn1` [Compound C120C, cis-1-(2-(1-methyl-1H-pyrazol-4-yl)thieno[2,3-d]pyrimidin-6-yl)-3-(trifluoromethyl)cyclobutanol] were 101 nM and 66.7 nM.
Taken in the same sequence, the figures for `C[C@@H](O)c1cc2c(-c3ccnn3C)cc(-c3cnc4nn(C)cc4c3)nc2s1` (single isomer, unassigned) [Compound B6R] were 1.84 nM and 4.86 nM.
Turning to `Cn1cc2cc(-c3ccc4cc(C(O)C(F)(F)F)sc4n3)cnc2n1` (centres unmarked) [Compound B23, 2,2,2-trifluoro-1-(6-(2-methyl-2H-pyrazolo[3,4-b]pyridin-5-yl)thieno[2,3-b]pyridin-2-yl)ethanol], the results for the IC50 in experiment [1] and in experiment [2] were 0.341 nM and 1.41 nM, respectively.
As to `CC[C@@H](O)c1cc2c(C3CC3)cc(-c3cnc4nn(C)cc4c3)nc2s1` (single isomer, unassigned) [Compound B13R], the IC50 in experiment [1] was 0.57 nM; in experiment [2], 3.2 nM.
As to `Cn1cc2cc(-c3ccc4cc(C(O)C5CC(F)(F)C5)sc4n3)cnc2n1` (centres unmarked) [Compound B30, (3,3-difluorocyclobutyl)(6-(2-methyl-2H-pyrazolo[3,4-b]pyridine-5-yl)thieno[2,3-b]pyridine-2-yl)methanol], the half-maximal inhibitory concentration (IC50) in experiment [1] was 0.26 nM; in experiment [2], 0.795 nM.
For the compound `Cn1cc2cc(-c3ccc4cc([C@@H](O)[C@@H]5CC5(F)F)sc4n3)cnc2n1` (single isomer, unassigned) [Compound B85SS], the 50% inhibitory concentration (IC50) in experiment [1] is 3.32 nM; in experiment [2], 2.83 nM.
